# From paper PMC4669708 (Cell Death & Disease, 2015)
# Columns and labels:
# Test in all cases: c-ponatinib pulldown LC-MS/MS
# Type in all cases: binding
# JAK2 = JAK2 (Homo sapiens, UniProt O60674)
# Description: (§1) Drug-affinity matrices were prepared as described previously.[51] In brief, 25 nmol of c-ponatinib were immobilized on 50 μl NHS-activated Sepharose 4 Fast Flow beads (GE Healthcare Bio-Sciences AB, Uppsala, Sweden). 10 mg whole cell lysate was used as protein input per replicate. Affinity chromatography and elution were performed in duplicate. After elution, the enriched proteins were reduced with dithiothreitol (DTT) and cysteine residues were alkylated by incubation with iodoacetamide. The samples were digested with modified porcine trypsin (Promega). Five percent of the digested eluates were purified and concentrated by C18 reversed-phase material. Subsequently, samples were analyzed in duplicates by gel-free one-dimensional LCMS.
# (§2) Precursor and MS/MS peaks were extracted from the RAW files and saved in the MGF format using msconvert tool (ProteoWizard Library v2.1.2708, www.proteowizard.sourceforge.net) for subsequent protein identification. An initial database search was performed with broader mass tolerance and conservative score threshold to re-calibrate the mass lists for optimal final protein identification. For the initial protein database search, Mascot (www.matrixscience.com, v2.3.02) was used. Error tolerances on the precursor and fragment ions were ±10 p.p.m. and ±0.6 Da, respectively, and the database search limited to fully-tryptic peptides with maximum one missed cleavage, carbamidomethyl cysteine and methionine oxidation set as fixed and variable modifications, respectively. The Mascot peptide ion score threshold was set to 30, and at least three peptide identifications per protein were required. Searches were performed against the human UniProtKB/SwissProt database (www.uniprot.org release 2013.01) including all protein isoforms. The initial peptide identifications were used to deduce independent linear transformations for precursor and fragment masses that would minimize the mean square deviation of measured masses from theoretical. Re-calibrated mass list files were searched against the same human protein database by a combination of Mascot and Phenyx (GeneBio SA, Geneva, Switzerland; version 2.5.14) search engines using narrower mass tolerances (±4 p.p.m. and ±0.3 Da). One missed tryptic cleavage site was allowed. Carbamidomethyl cysteine was set as a fixed modification and oxidized methionine was set as a variable modification. To validate the proteins, Mascot and Phenyx output files were processed by internally developed parsers. Proteins with ≥2 unique peptides above a score T1, or with a single peptide above a score T2 were selected as unambiguous identifications. Additional peptides for these validated proteins with score >T3 were also accepted. For Mascot searches, the following thresholds were used: T1=14, T2=40 and T3=10; Phenyx thresholds were set to 4.2, 4.75 and 3.5, respectively (P-value<10^−3). The validated proteins retrieved by the two algorithms were merged, any spectral conflicts discarded and grouped according to shared peptides. A false discovery rate of <1% for protein identifications and <0.1% for peptides (including the ones exported with lower scores) was determined by applying the same procedure against a database of reversed protein sequences. […] In addition to Mascot protein scores that were proposed as an estimate of protein abundance by the original algorithm, the modified version also included Phenyx protein scores and spectral counts. The algorithm first estimated three measure-specific P-values for each putative interaction, and, in contrast to,[69] P-value calculation utilized the quantiles of the measurements rather than the original data. The Fisher's method was used to combine the three resulting P-values into a single P-value for drug–protein interaction specificity. We have also correlated interaction P-values with the magnitude of competition effect represented by the fold reduction of spectral counts on free compound competition. […]
# TYK2 = TYK2 (Homo sapiens, UniProt P29597)
# Description: as §1, §2
# MAP4K2 = target: T1, MAP4K2 (Homo sapiens, UniProt Q12851)
# T1 sequence (Q12851 1-820): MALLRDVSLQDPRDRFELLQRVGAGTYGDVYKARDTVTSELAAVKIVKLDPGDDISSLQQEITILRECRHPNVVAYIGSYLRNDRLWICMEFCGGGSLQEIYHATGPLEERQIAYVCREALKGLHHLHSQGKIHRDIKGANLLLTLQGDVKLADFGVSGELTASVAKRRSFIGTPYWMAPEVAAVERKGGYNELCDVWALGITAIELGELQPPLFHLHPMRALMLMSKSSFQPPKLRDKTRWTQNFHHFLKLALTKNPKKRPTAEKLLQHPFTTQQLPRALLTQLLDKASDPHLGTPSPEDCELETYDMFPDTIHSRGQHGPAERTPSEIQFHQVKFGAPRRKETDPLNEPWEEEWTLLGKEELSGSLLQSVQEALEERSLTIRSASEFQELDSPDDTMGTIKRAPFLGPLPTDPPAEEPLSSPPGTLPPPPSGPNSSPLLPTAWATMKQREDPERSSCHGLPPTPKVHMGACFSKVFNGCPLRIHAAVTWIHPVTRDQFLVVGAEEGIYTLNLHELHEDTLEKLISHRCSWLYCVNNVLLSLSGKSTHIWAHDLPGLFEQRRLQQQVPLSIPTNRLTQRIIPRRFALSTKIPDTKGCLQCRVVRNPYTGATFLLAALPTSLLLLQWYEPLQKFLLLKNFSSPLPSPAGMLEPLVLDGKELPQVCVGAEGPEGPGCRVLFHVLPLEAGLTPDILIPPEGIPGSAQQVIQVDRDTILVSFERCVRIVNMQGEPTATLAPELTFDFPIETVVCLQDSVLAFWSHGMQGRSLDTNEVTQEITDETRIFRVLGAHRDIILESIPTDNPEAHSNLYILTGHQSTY
# Description: as §1, §2
# CDK5 = CDK5 (Homo sapiens, UniProt Q00535)
# Description: as §1, §2
# MELK = MELK (Homo sapiens, UniProt Q14680)
# Description: as §1, §2
# TYK2, sequence (P29597 whole entry): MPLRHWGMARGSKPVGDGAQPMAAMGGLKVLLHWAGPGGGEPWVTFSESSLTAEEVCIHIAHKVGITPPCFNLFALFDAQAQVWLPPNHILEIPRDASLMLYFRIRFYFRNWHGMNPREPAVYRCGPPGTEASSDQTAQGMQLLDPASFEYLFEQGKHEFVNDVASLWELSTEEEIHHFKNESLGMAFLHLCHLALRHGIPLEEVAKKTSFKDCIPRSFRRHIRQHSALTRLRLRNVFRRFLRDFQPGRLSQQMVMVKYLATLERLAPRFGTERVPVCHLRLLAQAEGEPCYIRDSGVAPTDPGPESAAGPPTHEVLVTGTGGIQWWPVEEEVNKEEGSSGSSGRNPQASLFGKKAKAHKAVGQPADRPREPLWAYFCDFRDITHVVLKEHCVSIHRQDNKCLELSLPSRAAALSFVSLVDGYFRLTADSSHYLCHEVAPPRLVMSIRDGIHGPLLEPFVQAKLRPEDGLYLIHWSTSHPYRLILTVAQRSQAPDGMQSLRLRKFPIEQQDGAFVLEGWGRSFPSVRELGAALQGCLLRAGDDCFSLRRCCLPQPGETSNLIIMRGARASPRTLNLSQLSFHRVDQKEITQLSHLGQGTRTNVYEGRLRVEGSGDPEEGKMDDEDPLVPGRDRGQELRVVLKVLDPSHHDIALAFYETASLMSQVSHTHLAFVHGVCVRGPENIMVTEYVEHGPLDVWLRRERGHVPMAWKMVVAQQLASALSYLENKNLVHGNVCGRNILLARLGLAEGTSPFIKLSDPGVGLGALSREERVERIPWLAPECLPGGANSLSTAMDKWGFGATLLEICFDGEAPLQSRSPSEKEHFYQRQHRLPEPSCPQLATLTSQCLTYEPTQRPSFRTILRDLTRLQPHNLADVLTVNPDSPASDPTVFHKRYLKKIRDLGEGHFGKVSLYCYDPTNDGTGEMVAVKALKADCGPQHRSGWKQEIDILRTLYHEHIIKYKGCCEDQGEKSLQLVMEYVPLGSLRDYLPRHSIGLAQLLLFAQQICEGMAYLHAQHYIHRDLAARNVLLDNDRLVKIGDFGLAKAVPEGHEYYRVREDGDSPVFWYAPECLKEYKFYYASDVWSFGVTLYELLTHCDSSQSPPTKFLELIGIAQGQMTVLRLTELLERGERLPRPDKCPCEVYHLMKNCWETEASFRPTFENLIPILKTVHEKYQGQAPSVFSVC
# JAK2, sequence (O60674 whole entry): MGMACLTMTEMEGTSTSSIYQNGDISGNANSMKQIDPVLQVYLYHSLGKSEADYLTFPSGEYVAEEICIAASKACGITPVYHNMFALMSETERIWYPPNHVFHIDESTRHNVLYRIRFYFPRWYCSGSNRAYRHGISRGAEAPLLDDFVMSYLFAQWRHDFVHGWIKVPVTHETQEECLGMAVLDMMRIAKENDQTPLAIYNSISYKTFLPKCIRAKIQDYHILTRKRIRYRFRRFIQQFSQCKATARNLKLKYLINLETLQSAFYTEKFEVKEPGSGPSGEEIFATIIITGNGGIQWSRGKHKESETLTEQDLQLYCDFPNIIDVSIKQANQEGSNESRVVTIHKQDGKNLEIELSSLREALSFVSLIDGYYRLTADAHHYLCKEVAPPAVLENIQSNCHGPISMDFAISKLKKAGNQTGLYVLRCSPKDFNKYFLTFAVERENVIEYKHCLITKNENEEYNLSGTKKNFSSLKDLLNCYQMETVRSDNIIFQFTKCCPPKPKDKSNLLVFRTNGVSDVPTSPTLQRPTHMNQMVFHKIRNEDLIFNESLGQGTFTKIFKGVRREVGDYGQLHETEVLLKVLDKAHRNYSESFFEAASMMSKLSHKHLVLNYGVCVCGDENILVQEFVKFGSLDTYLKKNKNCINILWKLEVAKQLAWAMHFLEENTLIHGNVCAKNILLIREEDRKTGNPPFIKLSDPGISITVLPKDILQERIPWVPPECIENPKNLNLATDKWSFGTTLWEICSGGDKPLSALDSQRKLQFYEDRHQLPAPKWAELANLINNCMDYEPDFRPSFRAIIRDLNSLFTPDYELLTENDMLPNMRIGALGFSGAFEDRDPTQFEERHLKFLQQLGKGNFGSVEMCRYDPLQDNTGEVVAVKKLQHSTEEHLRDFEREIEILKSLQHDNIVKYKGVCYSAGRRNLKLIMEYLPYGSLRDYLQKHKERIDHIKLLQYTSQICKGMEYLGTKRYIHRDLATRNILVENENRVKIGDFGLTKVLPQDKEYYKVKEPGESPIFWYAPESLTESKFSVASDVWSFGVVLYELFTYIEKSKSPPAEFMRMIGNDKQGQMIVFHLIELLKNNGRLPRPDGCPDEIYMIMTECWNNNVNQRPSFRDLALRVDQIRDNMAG
# CDK5, sequence (Q00535 whole entry): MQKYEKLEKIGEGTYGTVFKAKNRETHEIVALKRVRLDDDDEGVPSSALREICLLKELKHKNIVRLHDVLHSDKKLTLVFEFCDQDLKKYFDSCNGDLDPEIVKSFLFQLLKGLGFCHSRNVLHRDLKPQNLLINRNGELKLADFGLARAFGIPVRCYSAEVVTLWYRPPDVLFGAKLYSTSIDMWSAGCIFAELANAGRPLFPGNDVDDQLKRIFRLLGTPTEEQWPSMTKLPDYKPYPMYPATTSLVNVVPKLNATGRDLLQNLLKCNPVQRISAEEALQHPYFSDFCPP
# MELK, sequence (Q14680 whole entry): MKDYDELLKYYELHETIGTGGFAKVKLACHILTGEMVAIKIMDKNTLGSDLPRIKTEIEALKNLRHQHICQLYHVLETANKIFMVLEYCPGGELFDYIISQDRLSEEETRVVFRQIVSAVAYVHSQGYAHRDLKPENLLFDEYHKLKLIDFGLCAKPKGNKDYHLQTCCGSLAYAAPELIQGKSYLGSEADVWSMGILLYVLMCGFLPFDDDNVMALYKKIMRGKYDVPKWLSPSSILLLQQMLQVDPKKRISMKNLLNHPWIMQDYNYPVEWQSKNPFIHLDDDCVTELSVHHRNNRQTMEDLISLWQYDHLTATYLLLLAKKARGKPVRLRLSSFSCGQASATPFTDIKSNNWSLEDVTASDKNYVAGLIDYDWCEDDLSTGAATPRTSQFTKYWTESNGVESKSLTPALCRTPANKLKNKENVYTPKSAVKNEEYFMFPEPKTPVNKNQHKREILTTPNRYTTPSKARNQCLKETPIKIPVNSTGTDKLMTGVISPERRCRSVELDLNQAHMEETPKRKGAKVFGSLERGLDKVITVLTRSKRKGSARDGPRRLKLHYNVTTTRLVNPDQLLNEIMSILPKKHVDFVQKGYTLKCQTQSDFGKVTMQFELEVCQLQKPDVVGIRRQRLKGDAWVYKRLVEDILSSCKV
structure (smiles),measurement,setting,value
Cc1ccc(C(=O)Nc2ccc(CN3CCN(CCCN)CC3)c(C(F)(F)F)c2)cc1C#Cc1cnc2cccnn12 [c-ponatinib],Av. SC comp.,JAK2; + free ponatinib,0
same,Total SC comp.,JAK2; + free ponatinib,0
same,Av. SC,JAK2; no competitor,2.25
same,Total SC,JAK2; no competitor,9
same,Av. SC comp.,TYK2; + free ponatinib,0
same,Total SC comp.,TYK2; + free ponatinib,0
same,Av. SC,TYK2; no competitor,14
same,Total SC,TYK2; no competitor,56
same,Av. SC comp.,MAP4K2; + free ponatinib,0
same,Total SC comp.,MAP4K2; + free ponatinib,0
same,Av. SC,MAP4K2; no competitor,2.5
same,Total SC,MAP4K2; no competitor,10
same,Av. SC comp.,CDK5; + free ponatinib,2.75
same,Total SC comp.,CDK5; + free ponatinib,11
same,Av. SC,CDK5; no competitor,7.25
same,Total SC,CDK5; no competitor,29
same,Av. SC comp.,MELK; + free ponatinib,1
same,Total SC comp.,MELK; + free ponatinib,4
same,Av. SC,MELK; no competitor,5
same,Total SC,MELK; no competitor,20
